For 25 compounds, IC50 results are on record in patent US20250230171A1 (MOMA Therapeutics, Inc., priority 2023, published 2025).

One assay relates to DLD1 WT cells. Description: 7-day cell viability assay (CellTiter-Glo), DLD1 parental (WT). Format: cell-based, human. Conditions: Homo sapiens, DLD-1, 168 h, n=2.
The target in assay [1] is biotinylated Avi-POLθ[2-894] (Homo sapiens (Human), UniProt O75417). Briefly: POLθ ATPase assay (ADP-Glo). Conditions: n=2, read-out: Biochemical ATPase ADPGlo IC50. For orientation: ADP-Glo first removes unused ATP, then detects ADP through luciferase.
The test system of another assay is DLD1 BRCA2 (−/−) cells. Description: 7-day cell viability assay (CellTiter-Glo), DLD1 BRCA2 (−/−). The format is cell-based, human. Conditions: Homo sapiens, DLD-1, 168 h, n=2, read-out: Viability IC50 (uM) DLD1 BRCA2 null. Summed up: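 7-day growth assay in DLD1 cells with or without BRCA2; seeding densities chosen to keep log-linear growth. Compound: 10 uM top, 3-fold, 9 points. Endpoint: CTG ATP luminescence at RT.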
(ATP-based viability assays read luminescence as a measure of living cells.)

Read-outs that look alike come from different tables or passages of the source.

biotinylated Avi-POLθ[2-894], sequence (O75417 2-894): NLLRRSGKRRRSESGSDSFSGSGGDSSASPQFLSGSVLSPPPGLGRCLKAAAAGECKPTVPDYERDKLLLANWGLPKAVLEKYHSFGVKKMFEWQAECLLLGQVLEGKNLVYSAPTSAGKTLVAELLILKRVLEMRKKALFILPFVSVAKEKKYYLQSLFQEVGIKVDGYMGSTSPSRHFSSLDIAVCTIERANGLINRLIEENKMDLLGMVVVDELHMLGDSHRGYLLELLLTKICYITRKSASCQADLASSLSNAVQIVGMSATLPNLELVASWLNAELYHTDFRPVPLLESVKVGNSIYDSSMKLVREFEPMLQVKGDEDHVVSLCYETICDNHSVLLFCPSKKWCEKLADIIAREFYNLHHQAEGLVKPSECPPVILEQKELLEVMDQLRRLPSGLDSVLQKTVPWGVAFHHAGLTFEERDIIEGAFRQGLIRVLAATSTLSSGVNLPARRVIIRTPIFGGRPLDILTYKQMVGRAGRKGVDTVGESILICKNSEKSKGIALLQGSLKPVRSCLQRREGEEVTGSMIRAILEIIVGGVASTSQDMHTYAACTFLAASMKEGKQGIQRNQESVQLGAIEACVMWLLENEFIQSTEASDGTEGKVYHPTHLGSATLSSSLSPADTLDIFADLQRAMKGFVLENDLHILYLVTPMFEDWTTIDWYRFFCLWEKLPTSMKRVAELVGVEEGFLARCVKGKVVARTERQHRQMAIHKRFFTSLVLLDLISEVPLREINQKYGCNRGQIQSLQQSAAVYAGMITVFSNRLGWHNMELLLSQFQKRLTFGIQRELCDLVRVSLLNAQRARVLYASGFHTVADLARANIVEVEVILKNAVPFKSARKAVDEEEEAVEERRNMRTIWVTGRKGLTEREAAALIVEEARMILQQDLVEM

For the compound `COc1cnc(Cl)cc1-c1cc(C)ncc1C(=O)Nc1nc2c(s1)CN(C(=O)c1ccc(O)cn1)C2` [Example 174], the IC50 in the assay on DLD1 WT cells (7-day viability) is at least 10 µM; in assay [1], 1 to 15 nM; in the assay on DLD1 BRCA2 (−/−) cells (7-day viability), 0.1 to 0.25 µM.

`COc1cnc(Cl)cc1-c1cc(C)ncc1C(=O)Nc1nc2c(s1)CN(C(=O)c1cn(C(C)C)nc1C)C2` [Example 175]: the IC50 in the assay on DLD1 WT cells (7-day viability) is at least 10 µM; in assay [1] it was 1 to 15 nM; with DLD1 BRCA2 (−/−) cells (7-day viability), at least 2 µM.

`COc1cnc(Cl)cc1-c1cc(C)ncc1C(=O)Nc1nc2c(s1)CN(C(=O)C1CC(CC(F)F)C1)C2` (stereo not drawn) [Example 177]: the IC50 is at least 10 µM with DLD1 WT cells (7-day viability), 1 to 15 nM in assay [1] and 0.001 to 0.1 µM with DLD1 BRCA2 (−/−) cells (7-day viability).

In the case of `COc1ccc(C#N)cc1-c1cc(C)ncc1C(=O)Nc1nc2c(s1)CN(C(=O)C1CC(OC(F)F)C1)C2` (stereo not drawn) [Example 179], the IC50 is at least 10 µM in the assay on DLD1 WT cells (7-day viability), 1 to 15 nM in assay [1] and 0.001 to 0.1 µM with DLD1 BRCA2 (−/−) cells (7-day viability).

Consider `COc1cnc(Cl)cc1-c1cc(C)ncc1C(=O)Nc1nc2c(s1)CN(C(=O)[C@H]1C[C@@H](C#N)C1)C2` [Example 190], for which the IC50 with DLD1 WT cells (7-day viability) is at least 10 µM; in assay [1], 1 to 15 nM; in the assay on DLD1 BRCA2 (−/−) cells (7-day viability), 0.25 to 0.5 µM.

Turning to `COc1cnc(Cl)cc1-c1cc(C)ncc1C(=O)Nc1nc2c(s1)CN(C(=O)c1ccnc(C)c1)C2` [Example 194], the IC50 with DLD1 WT cells (7-day viability) was at least 10 µM; in assay [1], 1 to 15 nM; with DLD1 BRCA2 (−/−) cells (7-day viability), 0.001 to 0.1 µM.

Turning to `COc1cnc(Cl)cc1-c1cc(C)ncc1C(=O)Nc1nc2c(s1)CN(C(=O)C1CC(OC(F)(F)F)C1)C2` (stereo not drawn) [Example 196], the concentration for half-maximal inhibition (IC50) is at least 10 µM in the assay with DLD1 WT cells (7-day viability), 1 to 15 nM in assay [1] and 0.001 to 0.1 µM in the assay on DLD1 BRCA2 (−/−) cells (7-day viability).

`COc1cnc(Cl)cc1-c1cc(C)ncc1C(=O)Nc1nc2c(s1)CN(C(=O)c1ccn(C)n1)C2` [Example 197]: the figures for the IC50 (in the assay with DLD1 WT cells (7-day viability); in assay [1]; with DLD1 BRCA2 (−/−) cells (7-day viability)) were at least 10 µM, 1 to 15 nM and 0.25 to 0.5 µM, respectively.

As to `COc1cnc(Cl)cc1-c1cc(C)ncc1C(=O)Nc1nc2c(s1)CN(C(=O)c1ccc(C)cn1)C2` [Example 199], the IC50 with DLD1 WT cells (7-day viability) was 5 to 10 µM; in assay [1], 1 to 15 nM; in the assay on DLD1 BRCA2 (−/−) cells (7-day viability), 0.1 to 0.25 µM.

In the case of `COc1cnc(Cl)cc1-c1cc(C)ncc1C(=O)Nc1nc2c(s1)CN(C(=O)[C@@H]1CCCCO1)C2` [Example 216, (S) 2′-chloro-5′-methoxy-6-methyl-N-(5-(tetrahydro-2H-pyran-2-carbonyl)-5,6-dihydro-4H-pyrrolo[3,4-d]thiazol-2-yl)-[4,4′-bipyridine]-3-carboxamide], the values for the IC50 (in the assay with DLD1 WT cells (7-day viability); in assay [1]; with DLD1 BRCA2 (−/−) cells (7-day viability)) were at least 10 µM, 1 to 15 nM and 0.1 to 0.25 µM, respectively.

As for `COc1ccc(C#N)cc1-c1cc(C)ncc1C(=O)Nc1nc2c(s1)CN(C(=O)C1CC(C(F)F)C1)C2` (stereo not drawn) [Example 244], the IC50 in the assay on DLD1 WT cells (7-day viability) was at least 10 µM; in assay [1] it was 1 to 15 nM; with DLD1 BRCA2 (−/−) cells (7-day viability), 0.5 to 2 µM.

For the compound `COc1ccc(C#N)cc1-c1cc(C)ncc1C(=O)Nc1nc2c(s1)CN(S(=O)(=O)NC(C)C)C2` [Example 269], the results for the IC50 (in the assay on DLD1 WT cells (7-day viability); in assay [1]; with DLD1 BRCA2 (−/−) cells (7-day viability)) were at least 10 µM, 1 to 15 nM and at least 2 µM, respectively.

Take `CCCNS(=O)(=O)N1Cc2nc(NC(=O)c3cnc(C)cc3-c3cc(C#N)ccc3OC)sc2C1` [Example 270]: the IC50 was at least 10 µM in the assay on DLD1 WT cells (7-day viability), 1 to 15 nM in assay [1] and 0.5 to 2 µM in the assay with DLD1 BRCA2 (−/−) cells (7-day viability).

On to `COc1ccc(C#N)cc1-c1cc(C)ncc1C(=O)Nc1nc2c(s1)CN(C(=O)c1ccccn1)C2` [Example 276], for which the IC50 in the assay on DLD1 WT cells (7-day viability) was at least 10 µM; in assay [1] it was 1 to 15 nM; in the assay with DLD1 BRCA2 (−/−) cells (7-day viability) it was at least 2 µM.

With `CCNS(=O)(=O)N1Cc2nc(NC(=O)c3cnc(C)cc3-c3cc(C#N)ccc3OC)sc2C1` [Example 299], the IC50 with DLD1 WT cells (7-day viability) was at least 10 µM; in assay [1], 1 to 15 nM; in the assay with DLD1 BRCA2 (−/−) cells (7-day viability) it was 0.5 to 2 µM.

As to `COc1ccc(C#N)cc1-c1cc(C)ncc1C(=O)Nc1nc2c(s1)CN(C(=O)c1ccc(C)cn1)C2` [Example 304], the IC50 with DLD1 WT cells (7-day viability) was at least 10 µM; in assay [1], 1 to 15 nM; with DLD1 BRCA2 (−/−) cells (7-day viability), 0.1 to 0.25 µM.

For the compound `COc1ccc(C#N)cc1-c1cc(C)ncc1C(=O)Nc1nc2c(s1)CN(S(=O)(=O)c1ccccn1)C2` [Example 308], the values for the IC50 (in the assay on DLD1 WT cells (7-day viability); in assay [1]; in the assay on DLD1 BRCA2 (−/−) cells (7-day viability)) were at least 10 µM, 15 to 50 nM and at least 2 µM, respectively.

As for `COc1ccccc1-c1cc(C)ncc1C(=O)Nc1nc2c(s1)CN(C(=O)OC(C)(C)C)C2` [Example 314], the IC50 with DLD1 WT cells (7-day viability) is 2 to 5 µM; in assay [1], 50 to 150 nM; in the assay with DLD1 BRCA2 (−/−) cells (7-day viability), 0.5 to 2 µM.

Take `CCn1ncc(Cl)c1C(=O)N1Cc2nc(NC(=O)c3cnc(C)cc3-c3cc(Cl)ncc3OC)sc2C1` [Example 393, 2′-chloro-N-(5-(4-chloro-1-ethyl-1H-pyrazole-5-carbonyl)-5,6-dihydro-4H-pyrrolo[3,4-d]thiazol-2-yl)-5′-methoxy-6-methyl-[4,4′-bipyridine]-3-carboxamide]: the concentration for half-maximal inhibition (IC50) in the assay on DLD1 WT cells (7-day CellTiter-Glo) is at least 10 µM; in assay [1] (POLθ ATPase, ADP-Glo), 1 to 15 nM; in the assay with DLD1 BRCA2 (−/−) cells (7-day CellTiter-Glo), 0.001 to 0.1 µM.

For the compound `COc1cnc(Cl)cc1-c1cc(C)ncc1C(=O)Nc1nc2c(s1)CN(C(=O)c1ccc(OC(F)(F)F)cn1)C2` [Example 394, 2′-chloro-5′-methoxy-6-methyl-N-(5-(5-(trifluoromethoxy)picolinoyl)-5,6-dihydro-4H-pyrrolo[3,4-d]thiazol-2-yl)-[4,4′-bipyridine]-3-carboxamide], the IC50 in the assay on DLD1 WT cells (7-day viability) is at least 10 µM; in assay [1], 1 to 15 nM; in the assay on DLD1 BRCA2 (−/−) cells (7-day viability) it was 0.001 to 0.1 µM.

Take `COc1cnc(Cl)cc1-c1cc(C)ncc1C(=O)Nc1nc2c(s1)CN(C(=O)c1ccc(OC)c(Cl)n1)C2` [Example 395, 2′-chloro-N-(5-(6-chloro-5-methoxypicolinoyl)-5,6-dihydro-4H-pyrrolo[3,4-d]thiazol-2-yl)-5′-methoxy-6-methyl-[4,4′-bipyridine]-3-carboxamide]: the IC50 in the assay on DLD1 WT cells (7-day CellTiter-Glo) was at least 10 µM; in assay [1] (POLθ ATPase, ADP-Glo), 1 to 15 nM; in the assay on DLD1 BRCA2 (−/−) cells (7-day CellTiter-Glo), 0.001 to 0.1 µM.

With `COc1cnc(Cl)cc1-c1cc(C)ncc1C(=O)Nc1nc2c(s1)CN(C(=O)c1cc(C(F)F)ccc1F)C2` [Example 398, 2′-chloro-N-(5-(5-(difluoromethyl)-2-fluorobenzoyl)-5,6-dihydro-4H-pyrrolo[3,4-d]thiazol-2-yl)-5′-methoxy-6-methyl-[4,4′-bipyridine]-3-carboxamide], the IC50 in the assay on DLD1 WT cells (7-day CellTiter-Glo) is at least 10 µM; in assay [1] (POLθ ATPase, ADP-Glo), 1 to 15 nM; in the assay with DLD1 BRCA2 (−/−) cells (7-day CellTiter-Glo) it was 0.001 to 0.1 µM.

As for `COc1cnc(Cl)cc1-c1cc(C)ncc1C(=O)Nc1nc2c(s1)CN(C(=O)c1nccc(Cl)c1OC)C2` [Example 399, 2′-chloro-N-(5-(4-chloro-3-methoxypicolinoyl)-5,6-dihydro-4H-pyrrolo[3,4-d]thiazol-2-yl)-5′-methoxy-6-methyl-[4,4′-bipyridine]-3-carboxamide], the IC50 in the assay on DLD1 WT cells (7-day viability) is at least 10 µM; in assay [1], 1 to 15 nM; in the assay on DLD1 BRCA2 (−/−) cells (7-day viability), 0.001 to 0.1 µM.

On to `COc1cnc(Cl)cc1-c1cc(C)ncc1C(=O)Nc1nc2c(s1)CN(C(=O)c1ccc(OC)c3ccnn13)C2` [Example 402], for which the IC50 in the assay with DLD1 WT cells (7-day viability) was at least 10 µM; in assay [1] it was 1 to 15 nM; in the assay with DLD1 BRCA2 (−/−) cells (7-day viability), 0.001 to 0.1 µM.

In the case of `COc1cnc(Cl)cc1-c1cc(C)ncc1C(=O)Nc1nc2c(s1)CN(C(=O)C1CCC(C(F)F)CC1)C2` (stereo not drawn) [Example 406, (Cis and trans) 2′-chloro-N-(5-(4-(difluoromethyl)cyclohexane-1-carbonyl)-5,6-dihydro-4H-pyrrolo[3,4-d]thiazol-2-yl)-5′-methoxy-6-methyl-[4,4′-bipyridine]-3-carboxamide], the IC50 in the assay on DLD1 WT cells (7-day CellTiter-Glo) was at least 10 µM; in assay [1] (POLθ ATPase, ADP-Glo), 1 to 15 nM; with DLD1 BRCA2 (−/−) cells (7-day CellTiter-Glo) it was 0.001 to 0.1 µM.

One may read the IC50 as the concentration that gives 50% inhibition.
